ChEMBL document CHEMBL1201862, “PubChem BioAssay data set” (2004)
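How tested: cells in 96-well plates exposed to compound for 48 hours at five concentrations. Abbreviation: GI50, concentration required for 50% inhibition of growth.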 The source made the active and inactive calls. Cut-off read from the data, not from the text of the source: active = GI50 up to about 1.1 µM and inactive = higher.

Columns and labels:
Experiment in all cases: growth of human tumour cells (NCI), 48 h
CAKI-1 = tested on: CAKI-1
COLO 205 = tested on: COLO 205
DU-145 = tested on: DU-145
HCC 2998 = tested on: HCC 2998
HCT-116 = tested on: HCT-116
KM12 = tested on: KM12
M14 = tested on: M14
MDA-N = tested on: MDA-N
MOLT-4 = tested on: MOLT-4
NCI-H226 = tested on: NCI-H226
NCI-H23 = tested on: NCI-H23
NCI-H460 = tested on: NCI-H460
OVCAR-8 = tested on: OVCAR-8
SF-295 = tested on: SF-295
SK-MEL-28 = tested on: SK-MEL-28
SNB-19 = tested on: SNB-19
UACC-257 = tested on: UACC-257
EKVX = tested on: EKVX
HOP-92 = tested on: HOP-92
Malme-3M = tested on: Malme-3M

Compound	GI50 (CAKI-1)	GI50 (COLO 205)	GI50 (DU-145)	GI50 (HCC 2998)	GI50 (HCT-116)	GI50 (KM12)	GI50 (M14)	GI50 (MDA-N)	GI50 (MOLT-4)	GI50 (NCI-H226)	GI50 (NCI-H23)	GI50 (NCI-H460)	GI50 (OVCAR-8)	GI50 (SF-295)	GI50 (SK-MEL-28)	GI50 (SNB-19)	GI50 (UACC-257)	GI50 (EKVX)	GI50 (HOP-92)	GI50 (Malme-3M)
CCOC(=O)c1cc(=O)oc2c1N(C)c1ncccc1N2	> 100 µM (inactive)	> 100 µM (inactive)	> 100 µM (inactive)	> 100 µM (inactive)	> 100 µM (inactive)	> 100 µM (inactive)	> 100 µM (inactive)	> 100 µM (inactive)	> 100 µM (inactive)	> 100 µM (inactive)	> 100 µM (inactive)	> 100 µM (inactive)	> 100 µM (inactive)	> 100 µM (inactive)	> 100 µM (inactive)	> 100 µM (inactive)	> 100 µM (inactive)	–	–	–
Cc1cc(C)nc(NS(=O)(=O)c2ccc(Nc3nnc(/C=C/c4c(O)ccc5ccccc45)c(=O)n3N)cc2)n1	22.1 µM (inactive)	–	36.4 µM (inactive)	–	17.9 µM (inactive)	–	22.1 µM (inactive)	25.6 µM (inactive)	> 100 µM (inactive)	–	19.1 µM (inactive)	–	25.7 µM (inactive)	61.1 µM (inactive)	–	43.1 µM (inactive)	–	38.4 µM (inactive)	47.5 µM (inactive)	36.6 µM (inactive)
[O-][S+](Nc1ccccc1)c1cccc(Cl)c1 (centres undefined)	91 µM (inactive)	> 100 µM (inactive)	75 µM (inactive)	11.3 µM (inactive)	45.2 µM (inactive)	34.2 µM (inactive)	> 100 µM (inactive)	> 100 µM (inactive)	34.7 µM (inactive)	> 100 µM (inactive)	42.7 µM (inactive)	42.5 µM (inactive)	77.1 µM (inactive)	65.3 µM (inactive)	68.5 µM (inactive)	> 100 µM (inactive)	> 100 µM (inactive)	27 µM (inactive)	–	> 100 µM (inactive)
COc1cc(C(C)(C)C)c(OC(=O)/C=C/C(=O)O/C=C/[N+](=O)[O-])c(C(C)(C)C)c1	23.5 µM (inactive)	42.9 µM (inactive)	38.2 µM (inactive)	> 100 µM (inactive)	46.5 µM (inactive)	16.8 µM (inactive)	21.1 µM (inactive)	44.7 µM (inactive)	> 100 µM (inactive)	28.1 µM (inactive)	19.4 µM (inactive)	66.4 µM (inactive)	36.4 µM (inactive)	> 100 µM (inactive)	–	–	47.6 µM (inactive)	69 µM (inactive)	> 100 µM (inactive)	–
Clc1ccc(-c2nc3ccc4ccccc4c3c3c2CCCC3)cc1	> 100 µM (inactive)	> 100 µM (inactive)	> 100 µM (inactive)	> 100 µM (inactive)	50.5 µM (inactive)	> 100 µM (inactive)	> 100 µM (inactive)	> 100 µM (inactive)	> 100 µM (inactive)	> 100 µM (inactive)	> 100 µM (inactive)	97.3 µM (inactive)	> 100 µM (inactive)	> 100 µM (inactive)	> 100 µM (inactive)	> 100 µM (inactive)	> 100 µM (inactive)	30.1 µM (inactive)	–	> 100 µM (inactive)
c1ccc(C[n+]2cccc(-c3cc4ccccc4[nH]3)c2)cc1	> 100 µM (inactive)	15 µM (inactive)	47.4 µM (inactive)	–	32.5 µM (inactive)	16.6 µM (inactive)	21.7 µM (inactive)	19.1 µM (inactive)	21.5 µM (inactive)	31.2 µM (inactive)	16.4 µM (inactive)	25.3 µM (inactive)	38.3 µM (inactive)	77.8 µM (inactive)	16.4 µM (inactive)	26.5 µM (inactive)	14.9 µM (inactive)	42.8 µM (inactive)	16.4 µM (inactive)	14.6 µM (inactive)
N=C(N)N/N=C/c1c(-c2ccc(Cl)cc2)nc2sc(Cl)cn12	1.5 µM (inactive)	0.923 µM (active)	1.95 µM (inactive)	–	0.43 µM (active)	1.03 µM (active)	1.9 µM (inactive)	1.72 µM (inactive)	0.504 µM (active)	1.94 µM (inactive)	1.08 µM (active)	1.69 µM (inactive)	1.27 µM (inactive)	1.79 µM (inactive)	1.81 µM (inactive)	1.86 µM (inactive)	1.8 µM (inactive)	1.85 µM (inactive)	1.69 µM (inactive)	–
O=C(/N=N/c1ccccc1Br)NNc1ccccc1Br	33 µM (inactive)	–	> 100 µM (inactive)	22.5 µM (inactive)	24.7 µM (inactive)	–	60.8 µM (inactive)	55.8 µM (inactive)	25.6 µM (inactive)	> 100 µM (inactive)	48.9 µM (inactive)	70.3 µM (inactive)	> 100 µM (inactive)	–	53.7 µM (inactive)	> 100 µM (inactive)	> 100 µM (inactive)	–	–	38.2 µM (inactive)
O=C1c2scc(-c3ccccc3)c2-n2cccc21	11.4 µM (inactive)	17.8 µM (inactive)	26.3 µM (inactive)	20.4 µM (inactive)	13.4 µM (inactive)	13.6 µM (inactive)	18 µM (inactive)	16.1 µM (inactive)	13.4 µM (inactive)	10.2 µM (inactive)	–	31.1 µM (inactive)	13.5 µM (inactive)	18.1 µM (inactive)	15.2 µM (inactive)	15.9 µM (inactive)	30.1 µM (inactive)	4.89 µM (inactive)	–	16.4 µM (inactive)
Cc1cc2nc3c(C#N)c4c(c(Nc5ccc(F)cc5)n3c2cc1C)CCC4	> 100 µM (inactive)	> 100 µM (inactive)	> 100 µM (inactive)	–	> 100 µM (inactive)	> 100 µM (inactive)	> 100 µM (inactive)	> 100 µM (inactive)	> 100 µM (inactive)	> 100 µM (inactive)	> 100 µM (inactive)	> 100 µM (inactive)	> 100 µM (inactive)	> 100 µM (inactive)	> 100 µM (inactive)	> 100 µM (inactive)	> 100 µM (inactive)	> 100 µM (inactive)	–	52.2 µM (inactive)
COc1ccc(N)c(C(O)CCNC(C)=O)c1 (centres undefined)	> 100 µM (inactive)	> 100 µM (inactive)	> 100 µM (inactive)	–	> 100 µM (inactive)	> 100 µM (inactive)	> 100 µM (inactive)	> 100 µM (inactive)	> 100 µM (inactive)	> 100 µM (inactive)	> 100 µM (inactive)	> 100 µM (inactive)	> 100 µM (inactive)	> 100 µM (inactive)	–	> 100 µM (inactive)	> 100 µM (inactive)	> 100 µM (inactive)	> 100 µM (inactive)	–
CCOC(=O)/C=C(/OCC)[C@@H]1C(C(=O)c2ccc(Cl)cc2)[C@@H]1/C(=C\C(=O)OCC)OCC (some centres undefined)	16.9 µM (inactive)	6.68 µM (inactive)	47.1 µM (inactive)	–	5.18 µM (inactive)	6.87 µM (inactive)	14.5 µM (inactive)	17.5 µM (inactive)	3.98 µM (inactive)	6.27 µM (inactive)	11.7 µM (inactive)	18.6 µM (inactive)	6.56 µM (inactive)	7.98 µM (inactive)	41.7 µM (inactive)	11.9 µM (inactive)	6.75 µM (inactive)	14.5 µM (inactive)	2.47 µM (inactive)	16.8 µM (inactive)
COc1cc(S(=O)(=O)Nc2nc(-c3ccc(N4C(=O)CSC4c4cccs4)cc3)cs2)ccc1Cl (centres undefined)	> 100 µM (inactive)	> 100 µM (inactive)	> 100 µM (inactive)	–	45.2 µM (inactive)	75.5 µM (inactive)	> 100 µM (inactive)	43.4 µM (inactive)	22.1 µM (inactive)	> 100 µM (inactive)	33.2 µM (inactive)	> 100 µM (inactive)	33 µM (inactive)	> 100 µM (inactive)	> 100 µM (inactive)	> 100 µM (inactive)	71 µM (inactive)	–	36.6 µM (inactive)	> 100 µM (inactive)
CC1CNC(NS(=O)(=O)c2cc(C(=O)Nc3ccc(Cl)cc3)c(Cl)cc2S)=NN1 (centres undefined)	51.5 µM (inactive)	41.7 µM (inactive)	30.2 µM (inactive)	19.1 µM (inactive)	27 µM (inactive)	28.1 µM (inactive)	21.7 µM (inactive)	27.3 µM (inactive)	52.8 µM (inactive)	27.5 µM (inactive)	27.4 µM (inactive)	38.5 µM (inactive)	25.4 µM (inactive)	35.8 µM (inactive)	22.3 µM (inactive)	35.1 µM (inactive)	54.2 µM (inactive)	63 µM (inactive)	–	17.9 µM (inactive)
O=C1CCCC2=C1C(c1ccc3c(c1)OCO3)Nc1ccc3ccccc3c12 (centres undefined)	> 100 µM (inactive)	> 100 µM (inactive)	> 100 µM (inactive)	> 100 µM (inactive)	> 100 µM (inactive)	> 100 µM (inactive)	> 100 µM (inactive)	87.1 µM (inactive)	–	> 100 µM (inactive)	> 100 µM (inactive)	> 100 µM (inactive)	87.5 µM (inactive)	> 100 µM (inactive)	> 100 µM (inactive)	> 100 µM (inactive)	> 100 µM (inactive)	36.9 µM (inactive)	–	> 100 µM (inactive)
